The results in this text go back to patent US10093629B2, “Heterocyclic compounds and their use as retinoid-related orphan receptor (ROR) gamma-T inhibitors” (Takeda Pharmaceutical Company Limited, priority 2014, dated 2018).

Structures are written as SMILES.

Test [1] deals with T1, RORγt (Homo sapiens, UniProt P51449).
T1 sequence (P51449 1-497 isoform P51449-2): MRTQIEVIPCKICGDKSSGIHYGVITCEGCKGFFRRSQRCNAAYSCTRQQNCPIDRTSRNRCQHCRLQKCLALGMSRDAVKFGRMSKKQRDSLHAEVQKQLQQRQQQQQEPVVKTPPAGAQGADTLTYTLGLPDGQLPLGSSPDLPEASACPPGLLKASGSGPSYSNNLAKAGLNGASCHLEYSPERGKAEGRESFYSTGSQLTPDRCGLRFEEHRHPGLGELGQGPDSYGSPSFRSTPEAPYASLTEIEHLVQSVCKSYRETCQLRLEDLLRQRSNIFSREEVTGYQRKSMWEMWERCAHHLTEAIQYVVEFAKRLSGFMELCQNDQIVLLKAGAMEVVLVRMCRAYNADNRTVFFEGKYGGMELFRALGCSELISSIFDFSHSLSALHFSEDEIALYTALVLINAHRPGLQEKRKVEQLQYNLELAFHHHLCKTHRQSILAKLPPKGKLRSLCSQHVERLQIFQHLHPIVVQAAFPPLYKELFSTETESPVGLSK
The experiment in a line: RORγt binding test using fluorescent-labeled synthetic ligand (TR-FRET). The conditions noted are these: read-out: binding inhibitory rate of fluorescent-labeled synthetic ligand to RORγt at test compound 1 μM. As to the method:
RORγt Binding Test using Fluorescent-Labeled Synthetic Ligand
The binding activity of the test compound to RORγt was measured by a time resolved fluorescence resonance energy transfer method (TR-FRET) utilizing histidine-tagged RORγt, fluorescent-labeled synthetic ligand and terbium-labeled anti-histidine tag antibody (Invitrogen). First, a test compound diluted with an assay buffer (20 mM Tris-HCl (pH 7.5), 100 mM NaCl, 1 mM DTT, 0.1% BSA) was added to a 384 well plate by 3 μL. Then, RORγt diluted with an assay buffer to 240 nM was added by 3 μL, after which fluorescent-labeled synthetic ligand diluted with the assay buffer to 12 μM was added by 3 μL, and the mixture was stood at room temperature for 20 min. Thereafter, a terbium-labeled anti-histidine tag antibody diluted with the assay buffer to 8 nM was added by 3 μL. The mixture was stood at room temperature for 20 min, and fluorescence intensity (excitation wavelength 320 nm, fluorescence wavelength 520 nm, delay time 100 microseconds) was measured by Envision (PerkinElmer).
For orientation: TR-FRET usually uses a lanthanide donor and a delayed reading to cut background.

Test [2] addresses T1, RORγt. The experiment in a line: Cofactor recruitment test (Alpha Screen, biotinylated SRC-1 peptide). The test is classed as biochemical. The conditions noted are these: read-out: signal value inhibitory rate at test compound 1 μM. As to the method:
Cofactor Recruitment Test
Cofactor recruitment test was performed by Alpha Screen (Histidine Detection Kit, PerkinElmer) method. First, a test compound was diluted with an assay buffer (50 mM Tris-HCl (pH 7.5), 50 mM KCl, 1 mM DTT, 0.1% BSA) and added to a 384 well plate by 5 μL. […] The mixture was stood in a dark place for 1 hr, and the signal value was measured by Envision (PerkinElmer).

Test [3] addresses T1, RORγt. In words: Jurkat reporter test (human IL-17 ROR response element luciferase, RORγt vector). The test is classed as cell-based. The conditions noted are these: test compound 3 μM; Jurkat cells; read-out: luminescence level inhibitory rate at test compound 3 μM. As to the method: The Jurkat cells used for the reporter test were cultured in a culture medium (RPMI (Invitrogen), 10% FCS (AusGeneX), 100 U/mL penicillin, 100 μg/mL streptomycin). On the day of the test, 4×10^7 cells were recovered by a centrifugal operation (1000 rpm, 5 min.) and suspended in PBS (phosphate buffered saline) (Invitrogen). Thereafter, the cells were recovered again by a centrifugal operation, and suspended in 2 mL of R buffer (NEON transfection kit, Invitrogen). […] Gene transfer was performed by Electroporation apparatus (NEON, Invitrogen) under the conditions of pulse voltage 1350 V, interval 10 milliseconds, number of times 3. The cells after gene transfer were suspended in 40 mL of a reaction medium (RPMI, 10% Lipid reduced FCS (HyClone), 10 mM HEPES (pH 7.5), 100 U/mL penicillin, 100 μg/mL streptomycin, 5 μM lovastatin), and plated in a 96 well plate by 90 μL. A test compound diluted with the reaction medium was added by 10 μL, and the cells were cultured overnight in an incubator. Bright-Glo (Promega) was added by 100 μL, and the mixture was stirred at room temperature for 10 min, and the luminescence level was measured by Envision (PerkinElmer).

In test [4] the test system is IL-17 production in human blood. In words: Effect on IL-17 production in human blood. The test is classed as cell-based. The conditions noted are these: 72 h; 10 μM test compound; human peripheral blood, IL-23 and Dynabeads stimulation, 3 days; read-out: percent inhibition at 10 μM (IL-17 production). As to the method: Effect on IL-17 Production in Human Blood
The inhibitory effect of the test compound on IL-17 production in human blood was evaluated as follows. First, 150 μL of peripheral blood collected from healthy individuals using heparinized vacuum blood collection tubes was dispensed into each well of a 96-well plate (Corning), and 45 μL of RPMI 1640 medium (Gibco) containing 10% fetal bovine serum (FBS, Hyclone) and 30 μL of the test compound diluted with the medium were added to each well. The plate was then cultured for 30 min at 37° C. The cells were subsequently stimulated by adding 30 μL of 100 ng/mL human IL-23 (R&D) and 45 μL of Dynabeads Human (Invitrogen) to each well and culturing the plate for 3 days at 37° C. In wells without stimulation, 75 μL of RPMI 1640 medium containing 10% FBS was added instead of the IL-23 and Dynabeads solution. After culturing for 3 days, the culture supernatant was collected, and the amount of IL-17 in the supernatant was measured using an IL-17 ELISA kit (R&D).
The results (percent inhibition of IL-17 production with 10 μM of the test compound) measured by the above-mentioned method are shown in Table 8.

Another test relates to IL-17A gene expression. The experiment in a line: Effect on IL-23-induced cytokine expression in mice. The following applies: 10 mg/kg oral, 30 min before and 8 hr after IL-23; ear of Balb/c mice; versus the negative control group. The test is classed as in vivo, mouse. As to the method:
Effect on IL-23-Induced Cytokine Expression in Mice
A mouse IL-23 solution (500 ng/10 μL, prepared by Takeda Pharmaceutical Company Limited) or PBS (10 μL, negative control group) was administered intradermally in the ear of Balb/c mice (Charles River Japan, male, 7 weeks old). Twenty-four hr after administration, the ear was resected under isoflurane anesthesia. The test compound was suspended in 0.5% methylcellulose and administered orally 30 min before and 8 hr after IL-23 administration.
RNA extraction from the ear tissue and quantitative PCR were performed as follows. Specifically, ear tissue 5 mm in diameter was punched from an area of the resected ear centering on the IL-23 injection site, and the tissue was immersed in RNAlater (QIAGEN) for at least 18 hr. The RNAlater-treated ear tissue was homogenized in 350 μL of RLT buffer (RNeasy mini kit, QIAGEN) and treated (55° C., 10 min) with Proteinase K (QIAGEN). Total RNA was then extracted according to the RNeasy mini kit protocol. The RNA thus obtained was then reverse transcribed into cDNA using the High-Capacity RNA-to-cDNA kit (Applied Biosystems), and the amount of each gene expressions was measured by real-time PCR (Viia7™, Applied Biosystems). The PCR buffer used was TaqMan Fast Advanced Master Mix (Applied Biosystems), and TaqMan Gene Expression Assays (Applied Biosystems) Mm00439618_m1 (IL-17A) and 4352341E (β-actin) were used for each gene detection. The IL-17A gene expression level was normalized to the β-actin gene expression level, and the percent inhibition of IL-17A gene expression with the test compound was then calculated.
The results (percent inhibition of IL-17A gene expression with oral administration of the test compound) measured by the above-mentioned method are shown in Table 9.

As for `COc1ccc2c(c1)CCN(C(=O)C1CC(CC(=O)O)C1)[C@H]2C(=O)Nc1cc(F)c([Si](C)(C)C)c(F)c1` (stereo partly drawn) [Example 4, (3-(((1R)-1-((3,5-difluoro-4-(trimethylsilyl)phenyl)carbamoyl)-6-methoxy-3,4-dihydroisoquinolin-2(1H)-yl)carbonyl)cyclobutyl)acetic acid], the results for the inhibition at 1 µM at RORγt [1] and at RORγt [2] were 102% and 94%, respectively. Further, at RORγt [3], the inhibition at 3 µM turned out to be 100%. Moreover, the inhibition at 10 µM in test [4] was 88.3%. Also, the “percent inhibition of IL-17A gene expression” value (“percent inhibition” below) in the test on IL-17A gene expression was determined as 86%.

Regarding `COc1ccc2c(c1)CCN(C(=O)[C@H]1C[C@@H](C(=O)O)C1)[C@H]2C(=O)Nc1cc(F)c([Si](C)(C)C)c(F)c1` [Example 5, cis-3-(((1R)-1-((3,5-difluoro-4-(trimethylsilyl)phenyl)carbamoyl)-6-methoxy-3,4-dihydroisoquinolin-2(1H)-yl)carbonyl)cyclobutanecarboxylic acid], the inhibition at 1 µM amounted to 102% on RORγt [1] and 93% at RORγt [2]. The inhibition at 3 µM at RORγt [3] stood at 100%. For the same compound, in test [4], the inhibition at 10 µM came to 88.6%. Moreover, in the test with IL-17A gene expression, the “percent inhibition” value is 57%.

Consider `CCOc1ccc2c(c1)CCN(C(=O)[C@H]1C[C@@H](C(=O)O)C1)[C@H]2C(=O)Nc1cc(F)c([Si](C)(C)C)c(F)c1` [Example 8, cis-3-(((1R)-1-((3,5-difluoro-4-(trimethylsilyl)phenyl)carbamoyl)-6-ethoxy-3,4-dihydroisoquinolin-2(1H)-yl)carbonyl)cyclobutanecarboxylic acid], for which the inhibition at 1 µM came out at 102% on RORγt [1] and 90% on RORγt [2]. In addition, the inhibition at 3 µM on RORγt [3] came to 100%. The inhibition at 10 µM in test [4] came out at 82.9%. The “percent inhibition” value with IL-17A gene expression is 72%.

Turning to `CCOc1ccc2c(c1)CCN(C(=O)[C@H]1C[C@H](C(=O)O)C1)[C@H]2C(=O)Nc1cc(F)c([Si](C)(C)C)c(F)c1` [Example 9, trans-3-(((1R)-1-((3,5-difluoro-4-(trimethylsilyl)phenyl)carbamoyl)-6-ethoxy-3,4-dihydroisoquinolin-2(1H)-yl)carbonyl)cyclobutanecarboxylic acid], the inhibition at 1 µM on RORγt [1] is 102%; at RORγt [2], 88%. In addition, at RORγt [3], the inhibition at 3 µM was determined as 99%. For the same compound, in test [4], the inhibition at 10 µM amounted to 93.5%. For the same compound, the “percent inhibition” value with IL-17A gene expression amounted to 57%.

Regarding `COc1ccc2c(n1)CCN(C(=O)[C@H]1C[C@@H](CC(=O)O)C1)[C@H]2C(=O)Nc1cc(F)c([Si](C)(C)C)c(F)c1` [Example 23, (cis-3-(((5R)-5-((3,5-difluoro-4-(trimethylsilyl)phenyl)carbamoyl)-2-methoxy-7,8-dihydro-1,6-naphthyridin-6(5H)-yl)carbonyl)cyclobutyl)acetic acid], the inhibition at 1 µM at RORγt [1] stood at 102%; on RORγt [2], 87%. On RORγt [3], the inhibition at 3 µM is 101%. The inhibition at 10 µM in test [4] amounted to 85.9%. Moreover, the “percent inhibition” value in the test on IL-17A gene expression came to 96%.

Regarding `COc1ccc2c(n1)CCN(C(=O)[C@H]1C[C@H](CC(=O)O)C1)[C@H]2C(=O)Nc1cc(F)c([Si](C)(C)C)c(F)c1` [Example 28, (trans-3-(((5R)-5-((3,5-difluoro-4-(trimethylsilyl)phenyl)carbamoyl)-2-methoxy-7,8-dihydro-1,6-naphthyridin-6(5H)-yl)carbonyl)cyclobutyl)acetic acid], the inhibition at 1 µM at RORγt [1] was 102%; on RORγt [2] it was 87%. For the same compound, the inhibition at 3 µM on RORγt [3] was determined as 101%. Further, the inhibition at 10 µM in test [4] stood at 89.1%. The “percent inhibition” value with IL-17A gene expression stood at 91%.

Take `COc1ccc2c(c1)CCN(C(=O)[C@H]1C[C@@H]1CC(=O)O)[C@H]2C(=O)Nc1cc(F)c([Si](C)(C)C)c(F)c1` [Example 29, ((1R,2S)-2-(((1R)-1-((3,5-difluoro-4-(trimethylsilyl)phenyl)carbamoyl)-6-methoxy-3,4-dihydroisoquinolin-2(1H)-yl)carbonyl)cyclopropyl)acetic acid]: the inhibition at 1 µM at RORγt [1] was 102%; at RORγt [2], 91%. Further, the inhibition at 3 µM on RORγt [3] stood at 102%. Besides, the inhibition at 10 µM in test [4] was found to be 74.9%. Also, the “percent inhibition” value in the test on IL-17A gene expression is 73%.

Take `COc1ccc2c(n1)CCN(C(=O)[C@H]1C[C@@H](C(=O)O)C1)[C@H]2C(=O)Nc1cc(F)c([Si](C)(C)C)c(F)c1` [Example 31, cis-3-(((5R)-5-((3,5-difluoro-4-(trimethylsilyl)phenyl)carbamoyl)-2-methoxy-7,8-dihydro-1,6-naphthyridin-6(5H)-yl)carbonyl)cyclobutanecarboxylic acid]: the inhibition at 1 µM at RORγt [1] was found to be 102%; on RORγt [2] it was 86%. Further, the inhibition at 3 µM on RORγt [3] came to 102%. In test [4], the inhibition at 10 µM amounted to 89.8%. In addition, the “percent inhibition” value with IL-17A gene expression was found to be 85%.
